These results are taken from US20250340563A1, “FUSED PYRIDAZINE DERIVATIVES AS NLRP3 INHIBITORS” (Takeda Pharmaceutical Company Limited, priority 2022, published 2025).

Sequence of NLRP3 inflammasome (Q96P20 whole entry): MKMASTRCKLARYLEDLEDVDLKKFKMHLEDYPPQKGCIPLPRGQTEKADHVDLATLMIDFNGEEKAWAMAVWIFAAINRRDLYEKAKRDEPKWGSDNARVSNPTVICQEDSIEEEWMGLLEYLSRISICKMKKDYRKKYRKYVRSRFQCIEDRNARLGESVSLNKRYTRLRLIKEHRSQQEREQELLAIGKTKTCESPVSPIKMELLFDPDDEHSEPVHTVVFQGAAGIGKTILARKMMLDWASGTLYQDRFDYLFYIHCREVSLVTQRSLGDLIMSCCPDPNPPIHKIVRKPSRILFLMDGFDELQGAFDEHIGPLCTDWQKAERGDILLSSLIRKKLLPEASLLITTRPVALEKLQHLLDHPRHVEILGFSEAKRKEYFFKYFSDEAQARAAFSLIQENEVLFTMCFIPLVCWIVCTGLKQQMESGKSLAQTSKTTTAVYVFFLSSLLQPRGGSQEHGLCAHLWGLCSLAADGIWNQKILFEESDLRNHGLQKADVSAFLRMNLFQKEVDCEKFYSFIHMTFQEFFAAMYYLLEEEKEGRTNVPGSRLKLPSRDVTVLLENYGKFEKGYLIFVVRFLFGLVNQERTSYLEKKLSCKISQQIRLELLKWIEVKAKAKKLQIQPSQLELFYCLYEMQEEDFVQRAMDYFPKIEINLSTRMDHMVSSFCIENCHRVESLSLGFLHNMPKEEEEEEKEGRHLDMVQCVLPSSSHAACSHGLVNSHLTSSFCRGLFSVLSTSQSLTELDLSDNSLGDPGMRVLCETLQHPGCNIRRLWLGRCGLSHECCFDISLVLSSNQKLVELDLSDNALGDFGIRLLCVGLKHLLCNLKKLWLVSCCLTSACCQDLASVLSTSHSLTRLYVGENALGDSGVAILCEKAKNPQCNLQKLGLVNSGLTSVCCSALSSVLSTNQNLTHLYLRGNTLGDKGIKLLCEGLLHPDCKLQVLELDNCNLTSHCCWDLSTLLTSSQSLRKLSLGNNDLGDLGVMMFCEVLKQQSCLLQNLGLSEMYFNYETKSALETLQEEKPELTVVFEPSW

This experiment concerns the target NLRP3 inflammasome (Homo sapiens, UniProt Q96P20). Briefly: IL-1β assay in IFN-γ-differentiated, LPS-primed, ATP-activated THP-1 cells (ELISA). In kind it is cell-based. The following applies: 50 ng/mL LPS priming, 2.5 mM ATP activation, 2 hours. The method, then:
Monocytic THP-1 cells (ATCC: TIB-202) are maintained in accordance with the provider's instructions in RPMI media (Life Technologies, Cat #A10491-01); RPMI is supplemented with 10% heat inactivated fetal bovine serum (Hyclone Cat #SH30396.03). The cells are differentiated into macrophages by the addition of 25 ng/mL IFN-7 (PeproTech, Cat #300-02-100UG) for 24 hours at 37° C./5% CO2. Media is exchanged with fresh media with no FBS, and the cells are treated with 50 ng/mL LPS (priming step) for 24 hours at 37° C./5% CO2 (LPS-EK: Invivogen, Cat #tlrl-peklps). Media is exchanged with fresh media with no FBS. The cells are plated at 40,000 cells per well in 384-well flat-bottom cell culture plates (Costar 3764) containing compounds (added in 1:1000) in a 1:3.16 serial dilution series in DMSO and are incubated for 30 minutes at 37° C./5% CO2. The NLRP3 inflammasome is activated with the addition of 2.5 mM ATP (Sigma Cat #A3377) and the cells are incubated for 2 hours at 37° C./5% CO2. At the end of the incubation period, 40 μL supernatant is removed, and […] are monitored using an ELISA (Human […], R&D systems, Cat #DY201) in accordance with the manufacturer's instructions.
The IC50 values are calculated from a plot of percentage of inhibition versus the inhibitor concentration by a logistics curve fit according to: Y=[Bottom+(Top−Bottom)]/(1+10^[(Log IC50−X)·Hill Slope], where Y is the % inhibition at the inhibitor concentration, X, “Bottom” is the lowest inhibition value, i.e. 0%, “Top” is the maximum inhibition value, i.e. 100%, and the “Hill Slope” describes the slope of the sigmoidal curve between the “Bottom” and “Top” values. The curve fitting was conducted with internally developed software.
Background: ELISA stands for enzyme-linked immunosorbent assay.
One may read the IC50 as the concentration at which inhibition is half-maximal. Low values mean greater potency, high ones weaker potency. `Clc1ccc(-c2nnc(NC3CCN(Cc4ccccc4)CC3)c3ccccc23)cc1` [Example 163, N-(1-benzylpiperidin-4-yl)-4-(4-chlorophenyl)phthalazin-1-amine] returned an IC50 of 3020 nM.
Under `COc1ccc(-c2nnc(N[C@H]3CC[C@](O)(C(F)(F)F)CC3)c3ccccc23)cc1` [Example 128, trans-4-((4-(4-methoxyphenyl)phthalazin-1-yl)amino)-1-(trifluoromethyl)cyclohexan-1-ol] stands 3020 nM; under `COc1ccc(-c2nnc(N[C@@H]3C[C@@H](F)CN(C)C3)c3ccncc23)cc1` [Example 179, N-((3R,5R)-5-fluoro-1-methylpiperidin-3-yl)-4-(4-methoxyphenyl)pyrido[3,4-d]pyridazin-1-amine], 575 nM.
`CN1CCCC(Nc2nnc(-c3ccc(Cl)cc3)c3c2CN(S(C)(=O)=O)CC3)C1` (stereo not shown) [Example 107, 1-(4-chlorophenyl)-N-(1-methylpiperidin-3-yl)-6-(methylsulfonyl)-5,6,7,8-tetrahydropyrido[3,4-d]pyridazin-4-amine] showed an IC50 of 1780 nM. This IC50 is about 3.1-fold higher than that of the compound before.
As for `CN1CCC[C@@H](Nc2nnc(-c3ccc(C(F)F)cc3)c3ccncc23)C1` [Example 37, (R)-1-(4-(difluoromethyl)phenyl)-N-(1-methylpiperidin-3-yl)pyrido[3,4-d]pyridazin-4-amine], the figure is 77 nM; as for `FC(F)CN1CCCC(Nc2nnc(-c3ccc(Cl)cc3)c3ccccc23)C1` (stereo not shown) [Example 142, 4-(4-chlorophenyl)-N-(1-(2,2-difluoroethyl)piperidin-3-yl)phthalazin-1-amine], 195 nM; as for `O[C@]1(C(F)(F)F)CCC[C@@H](Nc2nnc(-c3ccc(Cl)cc3)c3ccccc23)C1` (racemic) [Example 114], 1230 nM.
As for `Clc1ccc(-c2nnc(NC3CCCN(C4CCC4)C3)c3ccccc23)cc1` (stereo not shown) [Example 145, 4-(4-chlorophenyl)-N-(1-cyclobutylpiperidin-3-yl)phthalazin-1-amine], the figure is 132 nM; as for `CC(=O)N1CCCC(Nc2nnc(-c3ccc(Cl)cc3)c3ccccc23)C1` (stereo not shown) [Example 110, 1-(3-((4-(4-chlorophenyl)phthalazin-1-yl)amino)piperidin-1-yl)ethan-1-one], 4480 nM.
As to `CN1CCCC(Nc2nnc(-c3ccc(C(C)(C)C)nc3)c3ccccc23)C1` (stereo not shown) [Example 20, 4-(6-(tert-butyl)pyridin-3-yl)-N-(1-methylpiperidin-3-yl)phthalazin-1-amine], half-maximal inhibition (IC50) required 626 nM.
Compound `CN1CCC[C@@H](Nc2nnc(-c3ccc(C(F)(F)F)cc3O)c3ccncc23)C1` [Example 90, (R)-2-(4-((1-methylpiperidin-3-yl)amino)pyrido[3,4-d]pyridazin-1-yl)-5-(trifluoromethyl)phenol] returned an IC50 of 3 nM.
As for `CN1CCC[C@H](Nc2nnc(-c3ccc(Cl)cc3)c3ccncc23)C1` [Example 65, (S)-1-(4-chlorophenyl)-N-(1-methylpiperidin-3-yl)pyrido[3,4-d]pyridazin-4-amine], the figure is 1220 nM; as for `CN1CCC[C@@H](Nc2nnc(-c3ccc(OC(F)(F)F)cc3)c3ccncc23)C1` [Example 32, (R)—N-(1-methylpiperidin-3-yl)-1-(4-(trifluoromethoxy)phenyl)pyrido[3,4-d]pyridazin-4-amine], 36 nM.
Under `CCN1CCc2c(-c3ccc(Cl)cc3)nnc(NC3CCCN(C)C3)c2C1` (stereo not shown) [Example 102, 1-(4-chlorophenyl)-6-ethyl-N-(1-methylpiperidin-3-yl)-5,6,7,8-tetrahydropyrido[3,4-d]pyridazin-4-amine] stands 692 nM; under `CC(=O)N1CCc2c(-c3ccc(Cl)cc3)nnc(NC3CCCN(C)C3)c2C1` (stereo not shown) [Example 105, 1-(1-(4-chlorophenyl)-4-((1-methylpiperidin-3-yl)amino)-7,8-dihydropyrido[3,4-d]pyridazin-6(5H)-yl)ethan-1-one], 955 nM.
For `COc1ccc(-c2nnc(NC3CCCN(CCF)C3)c3ccccc23)cc1` (stereo not shown) [Example 141, N-(1-(2-fluoroethyl)piperidin-3-yl)-4-(4-methoxyphenyl)phthalazin-1-amine], 269 nM corresponded to half-maximal inhibition (IC50).
The compound `COc1ccc(-c2nnc(N[C@@H]3CCCN(CCF)C3)c3ccccc23)c(F)c1` [Example 61, (R)-4-(2-fluoro-4-methoxyphenyl)-N-(1-(2-fluoroethyl)piperidin-3-yl)phthalazin-1-amine] returned an IC50 of 134 nM.
Under `CCN1CCCC1CNc1nnc(-c2ccc(OC)cc2)c2ccccc12` (stereo not shown) [Example 125, N-((1-ethylpyrrolidin-2-yl)methyl)-4-(4-methoxyphenyl)phthalazin-1-amine] stands 2750 nM; under `COc1ccc(-c2nnc(NCC(C)N3CCCC3)c3ccccc23)cc1` (stereo not shown) [Example 129, 4-(4-methoxyphenyl)-N-(2-(pyrrolidin-1-yl)propyl)phthalazin-1-amine], 2820 nM.
As to `F[C@H]1CNC[C@H](Nc2nnc(-c3ccc(Cl)cc3)c3cnccc23)C1` [Example 187, 4-(4-chlorophenyl)-N-((3R,5R)-5-fluoropiperidin-3-yl)pyrido[3,4-d]pyridazin-1-amine], the IC50 was found to be 3090 nM.
`CCN1CCc2c(NC3CCCN(C)C3)nnc(-c3ccc(Cl)cc3)c2C1` (stereo not shown) [Example 100, 4-(4-chlorophenyl)-6-ethyl-N-(1-methylpiperidin-3-yl)-5,6,7,8-tetrahydropyrido[3,4-d]pyridazin-1-amine] showed an IC50 of 2690 nM. The IC50 values of the last two compounds are within 1.5-fold of each other.
As for `Cc1ccc(-c2nnc(NC34CCC(O)(CC3)C4)c3c2CCOC3)c(O)c1` [Example 231, 4-((1-(2-hydroxy-4-methylphenyl)-7,8-dihydro-5H-pyrano[3,4-d]pyridazin-4-yl)amino)bicyclo[2.2.1]heptan-1-ol], the figure is 195 nM; as for `CS(=O)(=O)N1CCCC(Nc2nnc(-c3ccc(Cl)cc3)c3ccccc23)C1` (stereo not shown) [Example 148, 4-(4-chlorophenyl)-N-(1-(methylsulfonyl)piperidin-3-yl)phthalazin-1-amine], 1050 nM; as for `Cc1cc(Cl)ccc1-c1nnc(NC2CCCN(C)C2)c2cnccc12` (stereo not shown) [Example 49, 1-(4-chloro-2-methylphenyl)-N-(1-methylpiperidin-3-yl)pyrido[3,4-d]pyridazin-4-amine], 288 nM.
As for `CN1CCCC(Nc2nnc(-c3ccc(Cl)cc3)c3c2CCN(S(C)(=O)=O)C3)C1` (stereo not shown) [Example 106, 4-(4-chlorophenyl)-N-(1-methylpiperidin-3-yl)-6-(methylsulfonyl)-5,6,7,8-tetrahydropyrido[3,4-d]pyridazin-1-amine], the figure is 3310 nM.
`CN1CCCC(Nc2nnc(-c3ccc(Cl)cc3Cl)c3cnccc23)C1` (stereo not shown) [Example 52, 4-(2,4-dichlorophenyl)-N-(1-methylpiperidin-3-yl)pyrido[3,4-d]pyridazin-1-amine] returned an IC50 of 2400 nM.
Regarding `CC12CCC(Nc3nnc(-c4ccc(Cl)cc4)c4ccccc34)(CO1)C2` (stereo not shown) [Example 136, 4-(4-chlorophenyl)-N-(1-methyl-2-oxabicyclo[2.2.1]heptan-4-yl)phthalazin-1-amine], the IC50 stood at 3720 nM.
Turning to `Clc1ccc(-c2nnc(NC3CCN(CC4CC4)C3)c3ccccc23)cc1` (stereo not shown) [Example 161, 4-(4-chlorophenyl)-N-(1-(cyclopropylmethyl)pyrrolidin-3-yl)phthalazin-1-amine], 977 nM corresponded to half-maximal inhibition (IC50).
